In patent publication US8969026B2, “Polymeric reverse micelles as selective extraction agents and related methods of MALDI-MS analysis” (University of Massachusetts, priority 2007, dated 2015):
No end group written: not given here.

How the values were obtained:
[1] = fluorescent pI markers, cited from earlier work
[2] = Control extraction of pI markers into toluene alone (no polymer); assay type: physicochemical; conditions: no reverse micelles / absence of polymer; pH independent
Method: Previously, it was shown for a series of peptides that charge complementarity exerts an important influence on the extraction process with these amphiphilic homopolymers. (See, M. Y. Combariza, E. N. Savariar, D. R. Vutukuri, S. Thayumanavan and R. W. Vachet, Anal. Chem. 2007, 79, 7124-7130.) Here, the importance of two other factors—hydrophobicity and aqueous solution pH—are assessed. Hydrophobicity might affect the extraction efficiency to some degree due to the toluene phase that surrounds the reverse micelles and the hydrocarbon functionality on the periphery of the reverse micelles. In order to investigate this effect, extractions of pI markers with different hydrophobicities were performed. As an example of the effect of hydrophobicity, the results from the extraction of two pI markers (4 and 7) at an aqueous phase pH of 6.0 are shown in FIG. 4. […]
(§1) A two-phase liquid-liquid extraction protocol that was previously developed was employed. […] The top (organic) layer was removed and the bottom (aqueous) layer was analyzed by fluorescence spectroscopy. […]
The amount of pI marker left in the bottom (aqueous) layer after extraction was determined on a Photon Technology International fluorometer (Ontario, Canada). Analysis of the organic phase was difficult because the fluorescence spectrum of the polymer in this phase was very broad, and in many cases overlapped with the signal from the pI markers. The excitation and emission wavelengths for each pI marker were chosen to maximize the fluorescence signal. […] For most of the pI markers, the fluorescence intensity was very low under more acidic conditions, making it difficult to collect data at these lower pHs. The fluorescence intensity of the aqueous phase after a given extraction was measured, and in each case the fluorescence intensity was used to determine the concentration of the pI marker remaining in the aqueous phase after the extraction. […]

[3] = Liquid-liquid extraction of pI markers by reverse micelles of homopolymer 3 in toluene, fluorescence of the aqueous phase; assay type: physicochemical; conditions: for extraction efficiency: aqueous pH 6.0, reverse micelles present in the toluene phase
From the text: The polymeric reverse micelle-like nanoassemblies have carboxylate groups in their interiors; therefore, positively charged pI markers are expected to be extracted. Upon extraction, the concentrations of the pI markers left in the aqueous phase were quantitatively determined by fluorescence spectroscopy. Analysis of the organic phase was difficult because the fluorescence spectrum of the polymer is very broad in this phase, and in many cases overlaps with the signal from the pI markers. As an example of the data from the aqueous solution, the fluorescence spectra of pI marker 2, before (solid line) and after extraction (dashed line), are shown in FIG. 3. […] The concentration of the pI marker remaining in the aqueous phase can be quantified, and in this example, it is determined that 46% of pI marker 2 remains, which means that 54% of it is extracted into the organic phase when the aqueous solution pH is 1.9. It is not surprising that most of this compound is extracted under these conditions. This marker hag a pI value of 3.0, and at an aqueous solution pH of 1.9, most of this compound is positively charged and therefore interacts favorably with the negatively-charged interior of the polymeric reverse micelles.
as §1
The amount of pI marker left in the bottom (aqueous) layer after extraction was determined on a Photon Technology International fluorometer (Ontario, Canada). Analysis of the organic phase was difficult because the fluorescence spectrum of the polymer in this phase was very broad, and in many cases overlapped with the signal from the pI markers. The excitation and emission wavelengths for each pI marker were chosen to maximize the fluorescence signal. […] For most of the pI markers, the fluorescence intensity was very low under more acidic conditions, making it difficult to collect data at these lower pHs. The fluorescence intensity of the aqueous phase after a given extraction was measured, and in each case the fluorescence intensity was used to determine the concentration of the pI marker remaining in the aqueous phase after the extraction. The amount of pI marker that was extracted by the reverse micelles was then calculated by subtracting the remaining aqueous phase concentration from the initial concentration (1×10^−6 M). The fluorescence measurements were repeated at least 3 times for each extracted sample and the average values are reported.

[4] = pH-dependent biphasic extraction of a peptide mixture with inverse micelles of polymer 1 in toluene, MALDI-MS ion abundance ratio; assay type: physicochemical; conditions: extraction at pH 7.1 followed by extraction at pH 5.5, organic phase
[5] = as above; assay type: physicochemical; conditions: polymer 1 inverse micelles in toluene, K = Iorg/Iaq, [M+H]+ signal, [M+K]+ for spinorphin and β-amyloid, at least 4 replicates; for Ion abundance ratio (K ± sM) pH 4.0: aqueous pH 4.0; for Ion abundance ratio (K ± sM) pH 7.1: aqueous pH 7.1; for Ion abundance ratio (K ± sM) pH 9.0: aqueous pH 9.0
From the text: The net charge within the inverse micelle of 1 is negative, affording a selective extraction of positively-charged peptides. In a typical experiment, a toluene solution containing 1 was mixed with an aqueous solution containing a mixture of peptides. After vortexing this mixture, the organic layer was separated and analyzed using MALDI-MS. […] Because the aqueous solution was buffered at a pH of 7.1, peptides with pI values above 7.1 were expected to be sequestered into the interior of the inverse micelles, while peptides with pI values below 7.1 would be mostly excluded based on Coulombic repulsion.
The ion abundance ratio is related to the extraction capacity of the polymer, and can be defined as the ratio of the MALDI ion abundance of the peptide in the organic phase that contains the inverse micelles (Iorg) to the ion abundance of the peptide remaining in the aqueous phase (Iaq) (K=Iorg/Iaq). These experiments were performed with the hypothesis that the extraction would be based on electrostatic interaction between the polymer and the peptide. To test this premise further, two control experiments were carried out. […] Therefore, a two-phase extraction experiment was done in the absence of homopolymer 1, and no peptide extraction into the organic phase was observed. Second, peptide extractions using a polymer without the negatively-charged functionality were performed. Polymer 2 contains charge-neutral pentaethyleneglycol functionalities instead of the carboxylic acid moieties. […] These two results are consistent with the hypothesis that the extraction is based on electrostatics.
Without limitation to any one theory or mode of operation, the pH of the overall aqueous solution is also likely to dictate the pH of the hydrated interiors of the inverse micelle where the binding takes place. Accordingly, extractions at three different pHs: 4.0, 7.1, and 9.0 were carried out; the results of these experiments are listed in Table 1. […] The results from experiments at pH 7.1 and 9.0 further support this idea. It should be noted that when the experiment is carried out at pH 9.0, the peptide with a pI of 7.7 is extracted to some extent. Such a result could be attributed to errors associated with aqueous solution pH measuring or to errors in the peptide pI calculation. Nonetheless, the tunability is still significant and therefore is a very useful result.
A Bruker Reflex III time-of-flight mass spectrometer was used to perform MALDI-MS analysis. The mass spectrometer is equipped with a 337-nm nitrogen laser, a 1.0 m flight tube, and a stainless steel sample target. All mass spectra were acquired in reflectron mode using a voltage of 16 kV. All reported spectra represent an average of 70 shots acquired at 30% laser power. The accelerating voltage was set to 20 kV.
A typical biphasic extraction procedure involves mixing 200 μL of a toluene solution of homopolymer 1 or 2 (1×10^−4 M) with 1 mL of an aqueous solution of peptide(s) that was buffered to pH ˜7.0 with 50 mM Tris/TrisHCl. The mixture is vortexed for 10 to 120 minutes and centrifuged at 12000 rpm for 30-40 minutes to break the resulting emulsion and separate the organic and aqueous layers. The top (organic) layer is then recovered and dried to obtain a solid residue. The residue is redissolved into 10 μL of THF and sonicated for 10 seconds to promote solubilization. Finally, 20 μL of an α-CHCA matrix solution (0.16 Min 60:40:0.3% THF:H2O:TFA) are added to the sample for a final volume of 30 μL. For MALDI-MS analysis the samples are applied to the target using the dried-droplet method, where 1 μL of the sample/matrix mixture is spotted on a stainless-steel target, and the solvent is evaporated at room temperature. The residual aqueous phase (˜1 mL) after extraction is also examined by MALDI-MS. […]

[6] = Extraction of a peptide mixture by positively charged imidazole polymer 4 at pH 4.5, MALDI-MS; assay type: physicochemical; conditions: each peptide 1.0×10^−6 M
From the text: Extraction of peptide mixture by positively charged polymer. Illustrating other embodiments of this invention, positively-charged polymers extract peptides with pI values below the aqueous solution pH. Without limitation, polymers with moieties comprising a positively charged nitrogenous group can be used with good effect. Representative of such embodiments, an imidazole-substituted polymer, 4, shown below, can be prepared using straight forward synthetic techniques of the sort described herein, and/or as are well-known to those skilled in the art.
At pH 4.5, kinetensin and angiotensin are positively-charged because the pH is below their pI values. […] FIG. 12C provides a mass spectrum of the aqueous phase after extraction at pH 4.5. The positively-charged peptides remain in the aqueous phase after extraction.

[7] = aqueous solution pH 1.9, polymer 3 reverse micelles in toluene

Compound	pI [1]	percentage extracted into toluene alone [2]	extraction efficiency [3] [%]	extraction in the second step of the sequential extraction [4]	Ion abundance ratio (K ± sM) pH 4.0 [5]	Ion abundance ratio (K ± sM) pH 7.1 [5]	Ion abundance ratio (K ± sM) pH 9.0 [5]	other results
O=C(O)c1cc(Cl)ccc1NCCO [pI marker 2]	3.0	about 6.6±0.6%						percentage extracted into the organic phase [3, 7]: 54%; percentage of pI marker remaining in the aqueous phase after extraction [3, 7]: 46%
O=C(CNc1ccccc1C(=O)O)NCCN1CCOCC1 [pI marker 4]	5.1	8.4±0.6%	21.5±0.4					
CN(C)CCCNC(=O)c1cc(Cl)ccc1O [pI marker 7]	8.1	5.9±0.3%	70±1.6					Pka1 [1]: 6.80; Pka ([1]; second pKa column): 9.30
EDVGSNKGAIIGLM (listed as Homo sapiens) [β-Amyloid, human peptide purchased from American Peptide Company]				a small amount of β-amyloid was extracted	17 ± 6	0.4 ± 0.2	0.10 ± 0.07	
LVVYPWT [Spinorphin, LVVYPWT]				extracted into the organic layer	36 ± 12	2.0 ± 1.0	1.0 ± 0.5	
SSEVAGEGDGDSMGHEDLY (listed as Homo sapiens) [Preproenkephalin, human peptide purchased from American Peptide Company]					2.2 ± 0.9	0.4 ± 0.1	0.12 ± 0.04	phase distribution after extraction [6]: a small percentage of the preproenkephalin is believed to remain in the aqueous phase
